According to patent US6642251B1, “Geometrically restricted 2-indolinone derivatives as modulators of protein kinase activity” (Sugen, Inc., priority 1998, dated 2003):

biological target: EGFR (Homo sapiens, UniProt P00533); test: Cellular EGFR assay (cell EGFR); format: cell-based; parameters: expressed in transfected cells; host or cells: NIH 3T3/C7; conditions: 50% inhibition of target PTK activity
Protocol: EGF Receptor kinase activity in cells genetically engineered to express human EGF-R can be measured as described below:
1. NIH 3T3/C7 cell line (Honegger, et al., Cell 51:199-209, 1987) can be use for this assay.
1. Check seeded cells for contamination using an inverted microscope. Dilute test compounds stock (10 mg/ml in DMSO) 1:10 in DMEM medium, then transfer 5 μl to a test well for a test compounds drug dilution of 1:200 and a final DMSO concentration of 1%. Control wells receive DMSO alone. Incubate in 5% CO2 at 37° C. for one hour.
2. Prepare EGF ligand: dilute stock EGF in DMEM so that upon transfer of 10 μl dilute EGF (1:12 dilution), 25 nM final concentration is attained.
3. Prepare fresh 10 ml HNTG* sufficient for 100 μl per well wherein HNTG* comprises: HNTG stock (2.0 ml), milli-Q H2O (7.3 ml), EDTA, 100 mM, pH 7.0 (0.5 ml), Na3VO4 0.5 M (0.1 ml) and Na4(P2O7), 0.2 M (0.1 ml).
5. After two hours incubation with drug, add prepared EGF ligand to cells, 10 μl per well, to yield a final concentration of 25 nM. Control wells receive DMEM alone. Incubate, shaking, at room temperature, for 5 minutes.
6. Remove test compound, EGF, and DMEM. Wash cells twice with PBS. Transfer HNTG* to cells, 100 μl per well. Place on ice for 5 minutes. Meanwhile, remove blocking buffer from other ELISA plate and wash with TBST as described above.
7. With a pipette tip securely fitted to a micropipettor, scrape cells from plate and homogenize cell material by repeatedly aspirating and dispensing the HNTG* lysis buffer. Transfer lysate to a coated, blocked, and washed ELISA plate. Incubate shaking at room temperature for one hour.
8. Remove lysate and wash 4 times with TBST. Transfer freshly diluted anti-Ptyr antibody to ELISA plate at 100 μl per well. […]
12. The maximal phosphotyrosine signal is determined by subtracting the value of the negative controls from the positive controls. The percent inhibition of phosphotyrosine content for extract-containing wells is then calculated, after subtraction of the negative controls.

Chain of EGFR (P00533 25-1210): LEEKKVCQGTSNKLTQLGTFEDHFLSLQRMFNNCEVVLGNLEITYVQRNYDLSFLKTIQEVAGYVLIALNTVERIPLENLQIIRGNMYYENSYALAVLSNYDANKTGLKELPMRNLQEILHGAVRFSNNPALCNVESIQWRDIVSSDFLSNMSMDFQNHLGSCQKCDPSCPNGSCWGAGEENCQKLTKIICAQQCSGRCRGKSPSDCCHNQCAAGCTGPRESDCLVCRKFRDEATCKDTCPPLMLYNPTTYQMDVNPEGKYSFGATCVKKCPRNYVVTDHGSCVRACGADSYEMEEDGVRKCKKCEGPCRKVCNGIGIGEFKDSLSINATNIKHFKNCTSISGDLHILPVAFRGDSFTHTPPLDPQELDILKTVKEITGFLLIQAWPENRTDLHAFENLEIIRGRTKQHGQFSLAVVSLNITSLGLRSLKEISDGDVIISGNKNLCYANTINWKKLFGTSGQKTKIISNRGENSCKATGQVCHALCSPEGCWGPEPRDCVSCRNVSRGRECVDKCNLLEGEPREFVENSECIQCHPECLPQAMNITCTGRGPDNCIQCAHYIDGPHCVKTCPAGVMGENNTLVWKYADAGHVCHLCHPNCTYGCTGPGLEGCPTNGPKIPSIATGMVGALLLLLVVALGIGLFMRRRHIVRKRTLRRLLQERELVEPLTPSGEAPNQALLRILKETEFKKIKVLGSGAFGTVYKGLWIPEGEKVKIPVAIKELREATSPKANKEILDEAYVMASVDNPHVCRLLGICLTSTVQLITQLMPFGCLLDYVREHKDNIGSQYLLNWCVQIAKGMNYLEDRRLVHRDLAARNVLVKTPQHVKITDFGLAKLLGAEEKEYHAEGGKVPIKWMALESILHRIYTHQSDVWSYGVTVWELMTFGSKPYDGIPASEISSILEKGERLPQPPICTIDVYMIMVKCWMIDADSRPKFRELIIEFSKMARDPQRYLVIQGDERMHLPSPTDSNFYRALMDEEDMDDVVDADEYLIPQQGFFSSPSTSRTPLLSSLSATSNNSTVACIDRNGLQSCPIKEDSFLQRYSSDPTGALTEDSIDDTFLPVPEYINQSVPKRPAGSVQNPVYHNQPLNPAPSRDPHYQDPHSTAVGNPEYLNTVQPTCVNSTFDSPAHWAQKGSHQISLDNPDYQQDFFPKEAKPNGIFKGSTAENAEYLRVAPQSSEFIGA

IC50	Compound
> 100 µM	O=C1Nc2ccccc2/C1=C1\CCc2ccccc21 [Compound 10, 3-Indan-1-ylidene-1,3-dihydroindol-2-one]
> 100 µM	COc1ccc2c(c1)C(CC(=O)O)C/C2=C1/C(=O)Nc2ccccc21 (stereo not drawn) [Compound 11, [6-Methoxy-3-(2-oxo-1,2-dihydroindol-3-ylidene)-indan-1-yl]acetic Acid]
> 100 µM	COc1ccc2c(c1)C(CC(=O)[O-])CC2=C1C(=O)Nc2ccccc21.[Na+] (stereo not drawn) [Compound 13, [6-Methoxy-3-(2-oxo-1,2-dihydroindol-3-ylidene)-indan-1-yl]acetic Acid Sodium Salt]
